The target of one assay is JAK2 (Homo sapiens, UniProt O60674). The assay is described as follows: JAK2 kinase ADP-Glo assay (Example 60).
The next assay addresses JAK3 (Homo sapiens, UniProt P52333). The assay is described as follows: JAK3 kinase ADP-Glo assay (Example 60). (ADP-Glo turns the ADP formed in a reaction into a luminescent signal.)
In the next assay the target is JAK1 (Homo sapiens, UniProt P23458). The assay is described as follows: JAK1 kinase ADP-Glo assay (Example 60).
A further assay deals with T1, TYK2 (Homo sapiens, UniProt P29597).
T1 sequence (P29597 871-1187 limits assumed): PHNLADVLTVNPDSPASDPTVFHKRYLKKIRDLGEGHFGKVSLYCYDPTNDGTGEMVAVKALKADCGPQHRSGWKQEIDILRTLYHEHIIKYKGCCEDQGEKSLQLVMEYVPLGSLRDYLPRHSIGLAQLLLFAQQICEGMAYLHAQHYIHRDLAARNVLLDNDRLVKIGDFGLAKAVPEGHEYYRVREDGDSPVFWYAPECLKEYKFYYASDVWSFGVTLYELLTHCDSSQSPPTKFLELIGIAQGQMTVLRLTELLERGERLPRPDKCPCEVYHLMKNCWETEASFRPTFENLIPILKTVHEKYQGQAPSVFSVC
The assay is described as follows: TYK2 kinase ADP-Glo assay (Example 60).

For orientation: IC50 means the concentration that gives 50% inhibition. Low values mean higher potency, high ones lower potency.

Sequence of JAK2 (O60674 826-1132 limits assumed): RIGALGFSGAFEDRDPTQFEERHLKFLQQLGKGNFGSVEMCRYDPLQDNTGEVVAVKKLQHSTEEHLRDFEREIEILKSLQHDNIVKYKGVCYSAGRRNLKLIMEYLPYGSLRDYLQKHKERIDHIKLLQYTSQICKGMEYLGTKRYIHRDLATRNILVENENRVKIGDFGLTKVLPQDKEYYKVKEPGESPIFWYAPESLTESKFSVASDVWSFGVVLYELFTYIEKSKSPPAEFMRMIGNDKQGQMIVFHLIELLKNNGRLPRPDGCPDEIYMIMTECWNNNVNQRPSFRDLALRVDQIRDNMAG
Sequence of JAK3 (P52333 795-1124 limits assumed): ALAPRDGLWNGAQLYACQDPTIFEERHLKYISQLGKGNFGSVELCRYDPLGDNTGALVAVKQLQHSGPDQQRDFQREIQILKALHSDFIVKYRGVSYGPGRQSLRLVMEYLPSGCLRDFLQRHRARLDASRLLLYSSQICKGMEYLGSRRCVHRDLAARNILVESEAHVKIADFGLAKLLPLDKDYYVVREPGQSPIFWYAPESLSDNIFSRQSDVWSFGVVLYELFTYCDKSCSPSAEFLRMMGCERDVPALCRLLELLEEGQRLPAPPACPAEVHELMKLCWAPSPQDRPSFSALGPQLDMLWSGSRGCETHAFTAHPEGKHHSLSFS
Sequence of JAK1 (P23458 850-1154 limits assumed): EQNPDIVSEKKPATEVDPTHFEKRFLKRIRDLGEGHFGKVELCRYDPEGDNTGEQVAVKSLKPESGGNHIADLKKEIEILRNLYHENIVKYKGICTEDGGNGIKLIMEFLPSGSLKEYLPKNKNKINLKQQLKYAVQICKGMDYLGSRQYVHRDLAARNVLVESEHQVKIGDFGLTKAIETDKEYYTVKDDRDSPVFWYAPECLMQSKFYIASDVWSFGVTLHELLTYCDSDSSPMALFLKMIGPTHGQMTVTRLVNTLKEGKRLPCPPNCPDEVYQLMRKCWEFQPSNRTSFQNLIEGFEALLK

Turning to `CCc1cc(O)c(F)cc1-c1ccc2c(-c3nc4c([nH]3)CN(CC3CCC3)C4)n[nH]c2c1` [MDI-210, 4-(3-(5-(cyclobutylmethyl)-1,4,5,6-tetrahydropyrrolo[3,4-d]imidazol-2-yl)-1H-indazol-6-yl)-5-ethyl-2-fluorophenol], the IC50 was found to be 1.11 nM against JAK2, 0.979 nM on JAK3, 0.347 nM against JAK1 and 31.5 nM at TYK2.

Turning to `CCc1cc(O)c(F)cc1-c1ccc2c(-c3nc4c([nH]3)CN(C(=O)N3CC(O)C3)C4)n[nH]c2c1` [MDI-244, (2-(6-(2-ethyl-5-fluoro-4-hydroxyphenyl)-1H-indazol-3-yl)-4,6-dihydropyrrolo[3,4-d]imidazol-5(1H)-yl)(3-hydroxylazetidin-1-yl)ketone], the IC50 against JAK2 was found to be 0.915 nM; on JAK3 it was 0.55 nM; against JAK1, 0.248 nM; on TYK2 it was 1.31 nM.

Turning to `CCc1cc(O)c(F)cc1-c1ccc2c(-c3nc4c([nH]3)CN(S(=O)(=O)C3CCCC3)C4)n[nH]c2c1` [MDI-220, 4-(3-(5-(cyclopentylsulfonyl)-1,4,5,6-tetrahydropyrrolo[3,4-d]imidazol-2-yl)-1H-indazol-6-yl)-5-ethyl-2-fluorophenol], the IC50 at JAK2 is 1.38 nM; against JAK3 it was 3.15 nM; at JAK1 it was 2.02 nM; against TYK2, 5.56 nM.

Consider `CCc1cc(O)c(F)cc1-c1ccc2c(-c3nc4c([nH]3)CN(C(=O)[C@@H]3CCCN3)C4)n[nH]c2c1` [MDI-262, (S)-6-(2-ethyl-5-fluoro-4-hydroxyphenyl)-3-(5-prolyl-1,4,5,6-tetrahydropyrrolo[3,4-d]imidazol-2-yl)-1H-indazol], for which the IC50 against JAK2 was 1.54 nM; at JAK3, 1.22 nM; against JAK1 it was 0.319 nM; against TYK2, 2.59 nM.

With `CCc1cc(O)c(F)cc1-c1ccc2c(-c3nc4c([nH]3)CN(C(=O)C(C)C)C4)n[nH]c2c1` [MDI-228, 1-(2-(6-(2-ethyl-5-fluoro-4-hydroxyphenyl)-1H-indazol-3-yl)-4,6-dihydropyrrolo[3,4-d]imidazol-5-(1H)-yl)-2-methylpropan-1-one], the IC50 was found to be 0.355 nM at JAK2, 0.565 nM at JAK3, 0.398 nM on JAK1 and 4.76 nM at TYK2.

Consider `CCc1cc(O)c(F)cc1-c1ccc2c(-c3nc4c([nH]3)CN(C(=O)N(C)C)C4)n[nH]c2c1` [MDI-257, 2-(6-(2-ethyl-5-fluoro-4-hydroxyphenyl)-1H-indazol-3-yl)-N,N-dimethyl-4,6-dihydropyrrolo[3,4-d]imidazol-5(1H)-carboxamide], for which the IC50 against JAK2 came to 0.6 nM; against JAK3, 0.381 nM; against JAK1, 0.185 nM; at TYK2, 0.684 nM.

`CCc1cc(O)c(F)cc1-c1ccc2c(-c3nc4c([nH]3)CN(C(=O)N3CCN(C)CC3)C4)n[nH]c2c1` [MDI-235, (2-(6-(2-ethyl-5-fluoro-4-hydroxyphenyl)-1H-indazol-3-yl)-4,6-dihydropyrrolo[3,4-d]imidazol-5-(1H)-yl)(4-methylpiperazin-1-yl)ketone]: the IC50 on JAK2 is 0.166 nM; against JAK3, 0.183 nM; against JAK1 it was 0.0395 nM; at TYK2, 0.142 nM.

Regarding `CCc1cc(O)c(F)cc1-c1ccc2c(-c3nc4c([nH]3)CN(C(=O)NC3CC3)C4)n[nH]c2c1` [MDI-259, N-cyclopropyl-2-(6-(2-ethyl-5-fluoro-4-hydroxyphenyl)-1H-indazol-3-yl)-4,6-dihydropyrrolo[3,4-d]imidazol-5(1H)-carboxamide], the IC50 against JAK2 amounted to 1.3 nM; against JAK3 it was 1.29 nM; at JAK1, 0.659 nM; against TYK2, 2.94 nM.

With `CCc1cc(O)c(F)cc1-c1ccc2c(-c3nc4c([nH]3)CN(C(=O)NC3CCC3)C4)n[nH]c2c1` [MDI-260, N-cyclobutyl-2-(6-(2-ethyl-5-fluoro-4-hydroxyphenyl)-1H-indazol-3-yl)-4,6-dihydropyrrolo[3,4-d]imidazol-5(1H)-carboxamide], the IC50 on JAK2 was 2.99 nM; against JAK3 it was 2.47 nM; on JAK1, 2.28 nM; against TYK2 it was 8.98 nM.

Consider `CCc1cc(O)c(F)cc1-c1ccc2c(-c3nc4c([nH]3)CN(C(=O)CC(C)C)C4)n[nH]c2c1` [MDI-230, 1-(2-(6-(2-ethyl-5-fluoro-4-hydroxyphenyl)-1H-indazol-3-yl)-4,6-dihydropyrrolo[3,4-d]imidazol-5-(1H)-yl)-3-methylbutan-1-one], for which the IC50 at JAK2 is 0.555 nM; against JAK3 it was 0.821 nM; on JAK1 it was 0.819 nM; at TYK2, 6.57 nM.

As to `CCOC(=O)N1Cc2nc(-c3n[nH]c4cc(-c5cc(F)c(O)cc5CC)ccc34)[nH]c2C1` [MDI-253, Ethyl 2-(6-(2-ethyl-5-fluoro-4-hydroxyphenyl)-1H-indazol-3-yl)-4,6-dihydropyrrolo[3,4-d]imidazol-5(1H)-carboxylate], the IC50 against JAK2 is 1.6 nM; at JAK3, 1.5 nM; against JAK1 it was 2.9 nM; against TYK2, 31 nM.

With `CCc1cc(O)c(F)cc1-c1ccc2c(-c3nc4c([nH]3)CN(C(=O)N3CCC(C#N)C3)C4)n[nH]c2c1` (centres unmarked) [MDI-250, 1-(2-(6-(2-ethyl-5-fluoro-4-hydroxyphenyl)-1H-indazol-3-yl)-1,4,5,6-tetrahydropyrrolo[3,4-d]imidazol-5-carbonyl)pyrrolidin-3-nitrile], the IC50 stood at 0.974 nM at JAK2, 0.497 nM against JAK3, 0.395 nM against JAK1 and 0.993 nM against TYK2.

With `CCc1cc(O)c(F)cc1-c1ccc2c(-c3nc4c([nH]3)CN(C(=O)[C@H]3CCCN3)C4)n[nH]c2c1` [MDI-263, (R)-6-(2-ethyl-5-fluoro-4-hydroxyphenyl)-3-(5-prolyl-1,4,5,6-tetrahydropyrrolo[3,4-d]imidazol-2-yl)-1H-indazol], the IC50 against JAK2 stood at 0.717 nM; against JAK3, 0.458 nM; against JAK1, 0.12 nM; on TYK2, 0.717 nM.

For the molecule `CCc1cc(O)c(F)cc1-c1ccc2c(-c3nc4c([nH]3)CN(C(=O)CC#N)C4)n[nH]c2c1` [MDI-256, 3-(2-(6-(2-ethyl-5-fluoro-4-hydroxyphenyl)-1H-indazol-3-yl)-4,6-dihydropyrrolo[3,4-d]imidazol-5(1H)-yl)-3-oxypropionitrile], the IC50 stood at 3.06 nM against JAK2, 2.71 nM at JAK3, 0.7 nM at JAK1 and 6.14 nM against TYK2.

For `CCc1cc(O)c(F)cc1-c1cc(C)c2c(-c3nc4c([nH]3)CN(C(=O)N3CC[C@H](O)C3)C4)n[nH]c2c1` [MDI-240, (S)-(2-(6-(2-ethyl-5-fluoro-4-hydroxyphenyl)-4-methyl-1H-indazol-3-yl)-4,6-dihydropyrrolo[3,4-d]imidazol-5(1H)-yl)(3-hydroxylpyrrolidin-1-yl)ketone], the IC50 against JAK2 amounted to 0.842 nM; at JAK3, 2.02 nM; against JAK1, 0.45 nM; against TYK2, 5.34 nM.

With `CCc1cc(O)c(F)cc1-c1ccc2c(-c3nc4c([nH]3)CN(CC3CC3)C4)n[nH]c2c1` [MDI-208, 4-(3-(5-(cyclopropylmethyl)-1,4,5,6-tetrahydropyrrolo[3,4-d]imidazol-2-yl)-1H-indazol-6-yl)-5-ethyl-2-fluorophenol], the IC50 on JAK2 came out at 0.44 nM; against JAK3, 1.11 nM; on JAK1, 0.153 nM; against TYK2 it was 9.31 nM.

Turning to `CCc1cc(O)c(F)cc1-c1cc2[nH]nc(-c3nc4c([nH]3)CN(C(=O)C3CC3)C4)c2cn1` [MDI-242, cyclopropyl(2-(6-(2-ethyl-5-fluoro-4-hydroxyphenyl)-1H-pyrazolo[4,3-c]pyridine-3-yl)-4,6-dihydropyrrolo[3,4-d]imidazol-5(1H)-yl)ketone], the IC50 was 28.6 nM at JAK2, 152 nM against JAK3, 67.2 nM at JAK1 and 583 nM at TYK2.

Take `CCc1cc(O)c(F)cc1-c1ccc2c(-c3nc4c([nH]3)CN(C(=O)NC)C4)n[nH]c2c1` [MDI-246, 2-(6-(2-ethyl-5-fluoro-4-hydroxyphenyl)-1H-indazol-3-yl)-N-methyl-4,6-dihydropyrrolo[3,4-d]imidazol-5-(1H)-carboxamide]: the half-maximal inhibitory concentration (IC50) amounted to 0.973 nM against JAK2, 0.709 nM at JAK3, 0.241 nM against JAK1 and 1.52 nM against TYK2.

As to `CCc1cc(O)c(F)cc1-c1ccc2c(-c3nc4c([nH]3)CN(C(=O)N3CCC3)C4)n[nH]c2c1` [MDI-232, Azetidin-1-yl(2-(6-(2-ethyl-5-fluoro-4-hydroxyphenyl)-1H-indazol-3-yl)-4,6-dihydropyrrolo[3,4-d]imidazol-5-(1H)-yl)ketone], the IC50 against JAK2 is 1.04 nM; against JAK3, 0.868 nM; on JAK1, 0.745 nM; against TYK2, 2.26 nM.

As to `CCc1cc(O)c(F)cc1-c1ccc2c(-c3nc4c([nH]3)CN(C3CCOCC3)C4)n[nH]c2c1` [MDI-225, 5-ethyl-2-fluoro-4-(3-(5-(tetrahydro-2H-pyran-4-yl)-1,4,5,6-tetrahydropyrrolo[3,4-d]imidazol-2-yl)-1H-indazol-6-yl)phenol], the IC50 came out at 0.39 nM against JAK2, 0.487 nM on JAK3, 0.226 nM at JAK1 and 3.5 nM on TYK2.

The values are drawn from patent US12180215B2, “Substituted pyrrolo[3,4-d]imidazoles as JAK inhibitors” (HENAN MEDINNO PHARMACEUTICAL TECHNOLOGY CO., LTD., priority 2019, dated 2024).
